# According to ChEMBL document CHEMBL5053494, “Novel halogenated arylvinyl-1,2,4 trioxanes as potent antiplasmodial as well as anticancer agents: Synthesis, bioevaluation, structure-activity relationship and in-silico studies” (Eur J Med Chem, 2021):
# Activity calls are given as the source filed them. The rule behind the calls is not given here.
# Legend:
# Plasmodium falciparum [1] = assay: Antiplasmodial activity against chloroquine-resistant Plasmodium falciparum INDO assessed as growth inhibition by SYBER green 1 dye based fluorescence assay; format: functional, organism-based
# Plasmodium falciparum [2] = assay: Antiplasmodial activity against artemisinin-resistant Plasmodium falciparum Cam 3.1 R539 assessed as growth inhibition by SYBER green 1 dye based fluorescence assay; format: functional, organism-based
# Plasmodium falciparum [3] = assay: Resistance index, ratio of IC50 for antiplasmodial activity against artemisinin-resistant Plasmodium falciparum Cam 3.1 R539 to IC50 for antiplasmodial activity against chloroquine-resistant Plasmodium falciparum INDO; format: functional
# [4] = Cytotoxicity against human HEK293 cells assessed as cell viability measured for 24 hrs by MTT assay; format: cell-based
# [5] = Selectivity index, ratio of CC50 for human HEK293 cells to IC50 for antiplasmodial activity against chloroquine-resistant Plasmodium falciparum INDO; format: toxicity; conditions: HEK293 cells versus Plasmodium falciparum INDO
# Plasmodium falciparum [6] = assay: Antiplasmodial activity against ring stage chloroquine-resistant Plasmodium falciparum INDO assessed as ring stage parasite killing for 0 to 6 hrs by stage specific inhibition assay relative to control; format: functional; set-up: scale not given: the % may be the effect or the level left; conditions: time 0-6 hrs
# Plasmodium falciparum [7] = assay: Antiplasmodial activity against ring stage chloroquine-resistant Plasmodium falciparum INDO assessed as ring stage parasite killing for 12 hrs by stage specific inhibition assay relative to control; format: functional; set-up: scale not given: the % may be the effect or the level left
# Plasmodium falciparum [8] = assay: Antiplasmodial activity against trophozoite stage chloroquine-resistant Plasmodium falciparum INDO assessed as parasite killing for 0 to 4 hrs by stage specific inhibition assay relative to control; format: functional; set-up: scale not given: the % may be the effect or the level left; conditions: time 0-4 hrs
# Plasmodium falciparum [9] = assay: Antiplasmodial activity against trophozoite stage chloroquine-resistant Plasmodium falciparum INDO assessed as parasite killing for 4 to 8 hrs by stage specific inhibition assay relative to control; format: functional, organism-based; conditions: time 4-8 hrs
# Plasmodium falciparum [10] = assay: Antiplasmodial activity against schizont stage chloroquine-resistant Plasmodium falciparum INDO assessed as parasite killing for 0 to 3 hrs by stage specific inhibition assay relative to control; format: functional, organism-based; conditions: time 0-3 hrs
# Plasmodium falciparum [11] = assay: Antiplasmodial activity against schizont stage chloroquine-resistant Plasmodium falciparum INDO assessed as parasite killing for 3 to 6 hrs by stage specific inhibition assay relative to control; format: functional; set-up: scale not given: the % may be the effect or the level left; conditions: time 3-6 hrs
# Plasmodium falciparum [12] = assay: Antiplasmodial activity against schizont stage chloroquine-resistant Plasmodium falciparum INDO assessed as parasite killing for 6 to 9 hrs by stage specific inhibition assay relative to control; format: functional; set-up: scale not given: the % may be the effect or the level left; conditions: time 6-9 hrs
# Plasmodium falciparum [13] = assay: Antiplasmodial activity against schizont stage chloroquine-resistant Plasmodium falciparum INDO assessed as parasite killing for 9 to 12 hrs by stage specific inhibition assay relative to contol; format: functional; set-up: scale not given: the % may be the effect or the level left; conditions: time 9-12 hrs
# Plasmodium falciparum [14] = assay: Antiplasmodial activity against ring stage chloroquine-resistant Plasmodium falciparum INDO assessed as percentage survival at 70 nM for 6 hrs by ring stage survival assay; format: functional, organism-based
# Plasmodium falciparum [15] = assay: Antiplasmodial activity against ring stage chloroquine-resistant Plasmodium falciparum Cam 3.1 R539 assessed as percentage survival at 70 nM for 6 hrs by ring stage survival assay; format: functional
# Plasmodium falciparum [16] = assay: Antiplasmodial activity against ring stage chloroquine resistant Plasmodium falciparum INDO assessed as percentage survival at 700 nM for 6 hrs by ring stage survival assay; format: functional
# Plasmodium falciparum [17] = assay: Antiplasmodial activity against ring stage chloroquine-resistant Plasmodium falciparum Cam 3.1 R539 assessed as percentage survival at 700 nM for 6 hrs by ring stage survival assay relative to control; format: functional
# Plasmodium berghei [18] = assay: Antimalarial activity against Plasmodium berghei ANKA infected in Balb/c mouse assessed as suppression of parasitemia at 50 mg/kg, ip administered for 4 days by microscopic analysis; format: functional; conditions: time 4 day
# Plasmodium berghei [19] = assay: Antimalarial activity against Plasmodium berghei ANKA infected in Balb/c mouse assessed as suppression of parasitemia at 50 mg/kg, po administered for 4 days by microscopic analysis; format: functional; conditions: time 4 day
# A549 [20] = assay: Anticancer activity against human A549 cells assessed as cell growth inhibition measured for 72 hrs by MTT assay; format: functional, cell-based; conditions: A549, 72 h
# HepG2 = assay: Anticancer activity against human HepG2 cells assessed as cell growth inhibition measured for 72 hrs by MTT assay; format: functional, cell-based; conditions: HepG2, 72 h
# BEAS-2B [21] = assay: Anticancer activity against human BEAS-2B cells assessed as cell growth inhibition measured for 72 hrs by MTT assay; format: functional, cell-based
# L02 = assay: Anticancer activity against human L02 cells assessed as cell growth inhibition measured for 72 hrs by MTT assay; format: functional, cell-based; conditions: L02, 72 h
# [22] = Selectivity ratio of IC50 for anticancer activity against human BEAS-2B cells to IC50 for anticancer activity against human A549 cells; format: toxicity, cell-based; conditions: BEAS-2B cells versus A549 cells, read-out: Ratio IC50
# [23] = Selectivity ratio of IC50 for anticancer activity against human L02 cells to IC50 for anticancer activity against human HepG2 cells; format: toxicity, cell-based; conditions: L02 cells versus HepG2 cells, read-out: Ratio IC50
# A549 [24] = assay: Induction of apoptosis in human A549 cells assessed as early apoptotic cells measured after 24 hrs by annexinV-FITC/propidium iodide staining based flow cytometry; format: functional
# BEAS-2B [25] = assay: Induction of apoptosis in human BEAS-2B cells assessed as late apoptotic cells measured after 24 hrs by annexinV-FITC/propidium iodide staining based flow cytometry; format: functional
Structure (SMILES),IC50 (Plasmodium falciparum [1]) [nM],IC50 (Plasmodium falciparum [2]) [nM],Ratio IC50 (Plasmodium falciparum [3]),CC50 at 24 h [4] [nM],selectivity ratio [5],Activity (Plasmodium falciparum [6]) [%],Activity (Plasmodium falciparum [7]) [%],Activity (Plasmodium falciparum [8]) [%],Activity (Plasmodium falciparum [9]),Activity (Plasmodium falciparum [10]),Activity (Plasmodium falciparum [14]),Activity (Plasmodium falciparum [15]) [%],Activity (Plasmodium falciparum [16]) [%],Activity (Plasmodium falciparum [17]) [%],IC50 (A549 [20]) [nM],IC50 (HepG2) [nM],IC50 (BEAS-2B [21]) [nM],IC50 (L02) [nM],selectivity ratio [22],selectivity ratio [23],also measured
C=C(c1ccc(Cl)cc1Cl)C1COC2(CCCC2)OO1 (stereo unspecified),9.69,70.7,7.29,12100,1350,66,100,25,Active,Active,inactive,100,10,20,1430,15700,17400,2550,12.2,0.2,Activity (Plasmodium falciparum [11]): 60%; Activity (Plasmodium falciparum [12]): 100%; Activity (Plasmodium falciparum [13]): 100%; Activity (Plasmodium berghei [18]): 100%; Activity (Plasmodium berghei [19]): 0%
C=C(c1ccc(Cl)cc1Cl)C1COC2(CCCCC2)OO1 (stereo unspecified),18,109,6.09,2470,145,,,,,,,,,,810,17600,16700,3690,20.6,0.097,Activity (A549 [24]): 78%; Activity (BEAS-2B [25]): 4.5%
C=C(c1ccc(OC)c(F)c1)C1COC2(OO1)C1CC3CC(C1)CC2C3 (stereo unspecified),4.48,40.1,8.95,15900,3970,38,100,50,Active,Active,inactive,30,100,6,48200,32100,61200,11900,0.68,0.57,Activity (Plasmodium berghei [18]): 100%; Activity (Plasmodium berghei [19]): 100%
C=C(c1ccc(Cl)c(Cl)c1Cl)C1COC2(CCCC2)OO1 (stereo unspecified),20.6,,,1440,72,,,,,,,,,,690,8450,11500,1190,16.7,0.13,Activity (A549 [24]): 93.6%; Activity (BEAS-2B [25]): 8.6%
